System: ER-α in T47D cells
Assay: Western blot analysis of ER-α level in T47D cells
Format: cell-based, human
Conditions: 15 μM
Method: Turning to FIG. 1 there are shown Western blot analyses showing the effect of 1,3cPP on the expression level of ER-α. In the ER-α assay, MCF-7 cells were incubated with 1-100 μM 1,3cPP for up to 14 days. The analysis indicates a relative increase in the level of wild type ER-α receptor (MW 70,000) with either an increase in 1,3cPP concentration or time of incubation. On days 6 and 14, a nearly 2-fold and 3-fold increase were observed, respectively (FIGS. 1A, C, D, F). […] This band could be related to one of deleted exons D3-4 (MW 49,000), D4 (MW 54,000), or D7 (MW 51,000) ER-α variants.
Breast Cancer Cells. The human breast cancer MCF-7 cell line were obtained from Prof. […] The absence of Mycoplasma contamination was monitored by a Mycotrim TC test (Irvine Scientific, Santa Ana, Calif.) carried out once every 3 months.
For ER-α protein analysis, MCF-7 and T47D cells were cultured in 60×15 mm petri dishes. […] The protein concentration in each sample (1.5-4 mg/ml) was determined using the Coomassie Protein Assay (Pierce, Rockford, Ill.) according to the manufacturer's instructions. […] Bound antibodies were detected by horseradish peroxidase-conjugated goat anti-rabbit IgG, (Transduction Laboratories, Lexington, Ky. using the ECL detection method. Band densities were quantified by densitometry (Biorad model GS-690 Imaging densitometer) using Molecular Analyst software.

`O=P1(O)OCCCO1` [1,3-cPP, 1,3-cyclic propanediol phosphate] was tested, and the “level of wild type ER-α receptor” value (T47D (ER+PR+) clone 11 cells, 6 days) was “sharp increase” and the “expression of variant ER-α (MW≈40,000)” value (T47D clone 8 (ERlo PRlo), 3 days incubation) was “sharp increase”.
